The record followed here is patent publication US9776972B2, “Pyrazole derivatives as arginine methyltransferase inhibitors and uses thereof” (priority 2013, dated 2017).

Counter-ions that a name gives are not always drawn. A value given as a limit tells only on which side of the number the result lay.

One may read the IC50 as the concentration needed to halve the response being measured. Read a high IC50 as weaker potency in that assay. As a reminder, the EC30 is the point of the concentration-response curve where the effect stands at 30%.

The first experiment deals with human PRMT8 (Homo sapiens, UniProt Q9NR22). Nature of the experiment: PRMT8 Biochemical Assay (3H-SAM Flashplate, peptide substrate). As to conditions: single experiment or average of multiple experiments. The essentials: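 Methylation of a biotin-tagged histone H4 peptide (residues 31-45) by recombinant PRMT8 was measured as 3H transfer from 3H-SAM, after a 30 min room-temperature compound preincubation in Bicine buffer pH 7.6. Reactions were quenched with unlabelled SAM to 400 uM final, then bound counts were read by streptavidin Flashplate. IC50 came from a Hill fit of % inhibition relative to max and SAH min controls.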
Chain of human PRMT8 (Q9NR22 whole entry, the tested form may be a part): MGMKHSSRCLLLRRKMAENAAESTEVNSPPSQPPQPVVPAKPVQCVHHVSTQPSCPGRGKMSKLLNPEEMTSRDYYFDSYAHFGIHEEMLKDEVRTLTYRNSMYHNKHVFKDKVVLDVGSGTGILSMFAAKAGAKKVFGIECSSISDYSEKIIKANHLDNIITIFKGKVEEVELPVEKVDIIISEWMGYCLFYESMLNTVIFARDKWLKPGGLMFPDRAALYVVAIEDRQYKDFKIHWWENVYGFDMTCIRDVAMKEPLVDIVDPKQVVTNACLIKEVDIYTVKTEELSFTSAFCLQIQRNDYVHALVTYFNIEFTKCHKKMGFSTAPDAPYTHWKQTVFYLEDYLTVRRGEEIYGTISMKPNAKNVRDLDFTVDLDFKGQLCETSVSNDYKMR
`CNCCN(C)Cc1c[nH]nc1-c1ccc(OC)cc1OC` [Compound 55] had an IC50 of 3.19 µM.
In turn, `CNCCN(C)Cc1c[nH]nc1-c1ccc(F)c(F)c1` [Compound 51] had an IC50 of 0.184 µM. Against the preceding compound, the IC50 is about 17-fold lower.
In turn, `CNCCN(C)Cc1cn(C2CCCCC2)nc1-c1ccc(OC(C)C)cc1` [Compound 256] gave an IC50 of 2.65 µM.
Compound `CNCCN(C)Cc1c[nH]nc1-c1cccc2ccccc12` [Compound 57] registered a half-maximal inhibitory concentration (IC50) of 0.196 µM. Compared with the last compound, the IC50 is about 14-fold lower.
On the same count and under the same terms, under `CCN(CCN)Cc1c[nH]nc1-c1ccc(F)cc1` [Compound 62] stands 0.362 µM; under `CNCCN(C)Cc1cn(CCC(O)CO)nc1-c1ccc(F)cc1` (stereo not shown) [Compound 59], 8.86 µM.
Still for that read-out and setting: in the case of `CNCCN(C)Cc1c[nH]nc1-c1ccc(C(=O)c2ccccc2)cc1` [Compound 45] it was 0.308 µM; in that of `CNCCN(C)Cc1cnn(CCCC(O)CO)c1-c1ccc(F)cc1` (stereo not shown) [Compound 31], 6.31 µM.
The compound `CNCCN(C)Cc1c[nH]nc1-c1cccc(C#N)c1` [Compound 22] yielded an IC50 of 2.24 µM.
Same read-out and setting: in the case of `CCNC(=O)c1cccc(-c2n[nH]cc2CN(C)CCNC)c1` [Compound 43] it was 2.26 µM; in that of `CNCCN(C)Cc1c[nH]nc1-c1ccc(F)cc1F` [Compound 49], 0.749 µM.
For `CNCCN(C)Cc1c[nH]nc1-c1cccc(OC)c1` [Compound 24], half-maximal inhibition (IC50) was put at 0.888 µM.
Still for that read-out and setting: under `CNCCN(C)Cc1c[nH]nc1-c1cccc([N+](=O)[O-])c1` [Compound 21] stands 0.52 µM; under `CNCCN(C)Cc1c[nH]nc1-c1ccc(C)cc1C` [Compound 29], 2.31 µM.
On the same count and under the same terms, in the case of `CNCCN(C)Cc1c[nH]nc1-c1ccc2ccccc2c1` [Compound 58] it was 0.17 µM; in that of `CNCCN(C)Cc1c[nH]nc1-c1ccc(OC)cc1` [Compound 25], 0.55 µM; in that of `CNCCN(C)Cc1c[nH]nc1-c1ccccc1OC` [Compound 23], 3.29 µM.
The same measure, in the same setting: in the case of `CNCCN(C)Cc1cn(CCCC(O)CO)nc1-c1ccc(F)cc1` (stereo not shown) [Compound 30] it was greater than 50 µM.
With `CNCCN(C)Cc1c[nH]nc1-c1ccc(N)cc1` [Compound 33], 1.43 µM corresponded to half-maximal inhibition (IC50).
Same read-out and setting: under `CN(CCN)Cc1cn(CCO)nc1-c1ccc(F)cc1` [Compound 66] stands 8.75 µM; under `CNCCN(C)Cc1c[nH]nc1-c1cccc(O)c1` [Compound 26], 1.5 µM.
As for `CN(CCN)Cc1cnn(CCO)c1-c1ccc(F)cc1` [Compound 65], the IC50 amounted to 8.61 µM.
The same measure, in the same setting: under `CNCCN(C)Cc1c[nH]nc1-c1ccc(OC)c(F)c1` [Compound 52] stands 0.219 µM; under `CNCCN(C)Cc1c[nH]nc1-c1cc(F)ccc1F` [Compound 50], 1.66 µM.

The subject of another experiment is mono-methyl arginine in RKO cells. The experiment can be described thus: RKO Methylation Assay, In Cell Western (ICW) for mono-methyl arginine and DNA content. It is filed as cell-based. As to conditions: Homo sapiens, RKO, 72 h, RKO cells, 72 hours, mono-methyl arginine, percent activation; single experiment or average of multiple experiments; read-out: EC30 (In Cell Western data, Numerical). The essentials: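 After fixation, mono-methyl arginine and DNA (DRAQ5) were measured by infrared In-Cell Western imaging at 700/800 nm in RKO cells exposed to compounds for 72 hours. Percent activation used DMSO wells as minimum and 20 μM reference compound as maximum; EC30 curves fitted on triplicate wells.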
As to `CNCCN(C)Cc1c[nH]nc1-c1ccc(Oc2ccccc2F)cc1` [Compound 237], the concentration for an effect of 30% (EC30) stood at 0.114 µM.
Still for that read-out and setting: in the case of `CNCCN(C)Cc1n[nH]cc1-c1ccc(Oc2ccccc2F)cc1` [Compound 279, N^1-((4-(4-(2-fluorophenoxy)phenyl)-1H-pyrazol-3-yl)methyl)-N^1,N^2-dimethylethane-1,2-diamine] it was 0.637 µM; in that of `CNCCN(C)Cc1cn(C2CCCCC2)nc1-c1ccc(OC(C)C)cc1` [Compound 256], greater than 20 µM.
The same measure, in the same setting: in the case of `CCN(CCN)Cc1c[nH]nc1-c1ccc(F)cc1` [Compound 62] it was greater than 20 µM; in that of `CNCCN(C)Cc1c[nH]nc1-c1ccc(Oc2cccc(C(C)C)c2)cc1` [Compound 262], 1.23 µM.
Still for that read-out and setting: under `CN(CCN)Cc1c[nH]nc1-c1ccc(Oc2ccccc2F)cc1` [Compound 259] stands 0.532 µM; under `CNCCN(C)Cc1c[nH]nc1-c1ccc(OCCCO)cc1` [Compound 236], 0.852 µM.
Turning to `CNCCN(C)Cc1cn(Cc2ccncc2)nc1-c1ccc(OC(C)C)cc1` [Compound 245], the concentration for an effect of 30% (EC30) was 0.627 µM.
The same measure, in the same setting: in the case of `C=CC(=O)Nc1cccc(-c2[nH]ncc2CN(C)CCNC)c1` [Compound 258] it was greater than 20 µM; in that of `CNCCN(C)Cc1c[nH]nc1-c1ccc(Oc2ccccc2C(=O)NC)cc1` [Compound 274], 3.04 µM; in that of `C=C(C)C(=O)Nc1cccc(-c2[nH]ncc2CN(C)CCNC)c1` [Compound 257], greater than 20 µM.
Take `CNCCN(C)Cc1c[nH]nc1-c1cc(Cl)c(OCC2CC2)c(Cl)c1` [Compound 282]: the EC30 is 0.383 µM.
Still for that read-out and setting: under `CNCCN(C)Cc1c[nH]nc1-c1ccc(Oc2ccccc2)c(C(=O)NC)c1` [Compound 232] stands 7.14 µM.
`CNCCN(C)Cc1c[nH]nc1-c1cc(C(C)C)cc(C(C)C)c1` [Compound 229, N^1-((3-(3,5-diisopropylphenyl)-1H-pyrazol-4-yl)methyl)-N^1,N^2-dimethylethane-1,2-diamine]: the EC30 is 8.71 µM.
Same read-out and setting: in the case of `CNCCN(C)Cc1c[nH]nc1-c1ccc(Oc2cccc(F)c2)cc1` [Compound 231] it was 0.23 µM.
Take `CC(C)Cc1cccc(-c2n[nH]cc2CN(C)CCN)c1` [Compound 235]: the concentration for an effect of 30% (EC30) was 1.56 µM.
For the compound `CNCCN(C)Cc1c[nH]nc1-c1cc(OC(C)C)cc(C(C)C)c1` [Compound 260], the 30% effect concentration (EC30) was found to be 6.07 µM.
As for `CNCCN(C)Cc1n[nH]cc1-c1ccc(Oc2ccccc2)c(C(=O)N(C)C)c1` [Compound 241], the concentration for an effect of 30% (EC30) was determined as 10.4 µM.
On the same count and under the same terms, in the case of `CNCCN(C)Cc1n[nH]cc1-c1cc(CC(C)C)cc(CC(C)C)c1` [Compound 271] it was greater than 20 µM; in that of `CNCCN(C)Cc1c[nH]nc1-c1ccc(Oc2cccc(C#N)c2)cc1` [Compound 261], 0.327 µM.
Same read-out and setting: in the case of `CNCCN(C)Cc1n[nH]cc1-c1cc(C(C)C)cc(C(C)C)c1` [Compound 242] it was greater than 20 µM; in that of `CNCCN(C)Cc1cn(Cc2ccccn2)nc1-c1ccc(OC(C)C)cc1` [Compound 247], 8.26 µM.
In the case of `CNCCN(C)Cc1cn(CC(N)=O)nc1-c1ccc(OC(C)C)cc1` [Compound 251], the EC30 is 18.7 µM.
On the same count and under the same terms, under `CNCCN(C)Cc1c[nH]nc1-c1ccc(Oc2cccc(OC)c2)cc1` [Compound 230] stands 0.206 µM; under `CNCCN(C)Cc1n[nH]cc1-c1ccc(Oc2cccc(C#N)c2)cc1` [Compound 267], 0.694 µM.
The same measure, in the same setting: under `CNCCN(C)Cc1n[nH]cc1-c1cc(OC(C)C)cc(C(C)C)c1` [Compound 272] stands greater than 20 µM; under `CNCCN(C)Cc1n[nH]c(C)c1-c1ccc(OC(C)C)cc1` [Compound 275], 0.122 µM.
On the same count and under the same terms, under `CC(C)Cc1cc(-c2n[nH]cc2CN(C)CCN)ccc1F` [Compound 280] stands 1.72 µM; under `CNCCN(C)Cc1c(-c2ccc(OCCCOC)cc2)cnn1C` [Compound 276], greater than 20 µM.
Turning to `CNCCN(C)Cc1n[nH]cc1-c1ccc(Oc2cccc(C(=O)NC)c2)cc1` [Compound 268], the EC30 was found to be 3.69 µM.
On the same count and under the same terms, in the case of `CNCCN(C)Cc1n[nH]cc1-c1ccc(Oc2cccc(OC)c2)cc1` [Compound 239] it was 1.28 µM; in that of `CNCCN(C)Cc1n[nH]cc1-c1ccc(Oc2cccc(F)c2)cc1` [Compound 270], 1.06 µM.
On the same count and under the same terms, in the case of `CNCCN(C)Cc1cn(CC(=O)OC)nc1-c1ccc(OC(C)C)cc1` [Compound 248] it was greater than 20 µM; in that of `CNCCN(C)Cc1c[nH]nc1-c1cc(Cl)c(OC(C)C)c(Cl)c1` [Compound 265, N^1-((3-(3,5-dichloro-4-isopropoxyphenyl)-1H-pyrazol-4-yl)methyl)-N^1,N^2-dimethylethane-1,2-diamine], 0.503 µM.
In the case of `CNCCN(C)Cc1cn(C)nc1-c1ccc(OC(C)C)cc1` [Compound 243, N^1-((3-(4-isopropoxyphenyl)-1-methyl-1H-pyrazol-4-yl)methyl)-N1,N2-dimethylethane-1,2-diamine], the EC30 is 0.809 µM.
Still for that read-out and setting: under `CNCCN(C)Cc1nn(C)cc1-c1ccc(OCCCOC)cc1` [Compound 266] stands greater than 20 µM; under `CNCCN(C)Cc1n[nH]cc1-c1ccc(Oc2cccc(C(C)C)c2)cc1` [Compound 277], greater than 20 µM; under `CNCCN(C)Cc1n[nH]cc1-c1cc(Cl)c(OC(C)C)c(Cl)c1` [Compound 273], 1.3 µM.
On the same count and under the same terms, under `CNCCN(C)Cc1n[nH]cc1-c1ccc(Oc2ccccc2)c(C(=O)NC)c1` [Compound 240] stands 6.45 µM.
The same measure, in the same setting: in the case of `CNCCN(C)Cc1c[nH]nc1-c1cc(CC(C)C)cc(CC(C)C)c1` [Compound 281] it was 3.52 µM; in that of `CNCCN(C)Cc1c[nH]nc1-c1ccc(Oc2ccccc2)c(C(=O)N(C)C)c1` [Compound 233], 17.3 µM.

The same experiment, now with this note: Homo sapiens, RKO, 72 h, read-out: EC30 (In Cell Western data, Numerical, μM).
As to `CCn1ncc(CN(C)CCNC)c1-c1ccc(OC(C)C)cc1` [Compound 252], the EC30 was found to be 1.82 µM.
Same read-out and setting: in the case of `CNCCN(C)Cc1cn(Cc2cccnc2)nc1-c1ccc(OC(C)C)cc1` [Compound 246] it was 1.08 µM.
Still for that read-out and setting: under `CNCCN(C)Cc1cn(CCOC)nc1-c1ccc(OC(C)C)cc1` [Compound 253, N1-((3-(4-isopropoxyphenyl)-1-(2-methoxyethyl)-1H-pyrazol-4-yl)methyl)-N1,N2-dimethylethane-1,2-diamine hydrochloride] stands 8 µM; under `CNCCN(C)Cc1cnn(C2CCCC2)c1-c1ccc(OC(C)C)cc1` [Compound 255], 2.66 µM; under `CNCCN(C)Cc1cn(C2CCC2)nc1-c1ccc(OC(C)C)cc1` [Compound 254, N1-((1-cyclobutyl-3-(4-isopropoxyphenyl)-1H-pyrazol-4-yl)methyl)-N1,N2-dimethylethane-1,2-diamine hydrochloride], 2.24 µM.

The same experiment, now with this note: RKO cells, 72 hours, mono-methyl arginine, percent activation; class symbols.
Consider `CNCCN(C)Cc1c[nH]nc1-c1ccc(OC)cc1OC` [Compound 55], for which the “EC30 (In Cell Western data)” value is “C (“C” indicates an EC30 ≧ 12.01 μM)”.
On the same count and under the same terms, under `CNCCN(C)Cc1c[nH]nc1-c1ccc(C(=O)c2ccccc2)cc1` [Compound 45] stands “A (“A” indicates an EC30 ≦ 3.00 μM)”.

The experiment is the same for the next values; noted with them: RKO cells, 72 hours, mono-methyl arginine, percent activation; single experiment or average of multiple experiments.
As for `CNCCN(C)Cc1c[nH]nc1-c1ccc(C(=O)c2ccccc2)cc1` [Compound 45], the “EC30 (In Cell Western data, Numerical, μM)” value came to 0.454 µM.
